In US11920185B2, “Method of inactivating microbes by citraconic anhydride” (Roche Molecular Systems, Inc., priority 2015, dated 2024):
Read-outs that look alike come from different tables or passages of the source.

Tested on: lambda bacteriophage GT11
Assay: Titering (plaque assay) of citraconic anhydride-treated lambda bacteriophage on E. coli Y1088
Format: cell-based
Conditions: for Titer, Tricine, After 1 month / Titer, Tricine, Day 1: stored in 10 mM Tricine pH 8.3; for Titer, Tris, After 1 month / Titer, Tris, Day 1: stored in 10 mM Tris pH8.3; for Titer pfu/ml (at 1 month): stored one month at 4° C.
Experimental: In order to analyze lambda bacteriophage GT11 inactivation using citraconic anhydride (also referred to as “Cit” or “cit”), a titration was performed.
10 μl of working solution of citraconic anhydride in DMF was added to 1 ml lambda bacteriophage in SM buffer, which is 0.1 M NaCl, 10 mM MgSO^4, 50 mM Tris pH 7.5, 0.01% gelatin (Sambrook and Russell, supra, page A2.8) where the phage was provided at 1×10^7 pfu/ml). The reaction was performed at room temperature for 1 hour and then stored at 4° C. for 7 days to one month. The phage solutions were titered to determine the effect of the citraconic anhydride modification on the phage.
Titering of bacteriophage was performed as follows: The host bacterium, E. coli Y1088, was inoculated into 15 mls luria broth supplemented with 10 mM MgSO4 and 0.2% Maltose (w/v) using a 0.1% inoculum and incubated at 37° C. to an OD<=1. The cells were concentrated by centrifugation (10 minutes at 500×g) and the cell pellet resuspended in ½ volume of sterile 10 mM MgSO4. The E. coli cells were diluted to 0.5 OD600 with 10 mM MgSO4. The bacteriophage was serially diluted in SM Buffer as follows. Pipet 10 μL phage into the tube labeled 10^−2. Resuspend by vortexing. Using a new tip, pipet 10 μL of the 10^−2 dilution into the tube labeled 10^−4. Resuspend by vortexing. Repeat the 100-fold serial dilutions to the 10^−8 tube. From the 10^−8 tube, perform 10-fold dilutions to the 10^−9 and 10^−10 tubes. Add 100 μL of phage from the 10^−8 s to the 10^−9 tube, vortex, and add 100 μL from the 10^−9 tube to the 10^−10 tube. Vortex the 10^−10 tube. Add 300 μL E. coli to each of 5 sterile 17×100 mm Falcon polypropylene round bottom tubes (#352057) for each sample being titered. Add 100 μL of the diluted […] to the tube (dilutions 10^−4, 10^−6, 10^−8, 10^−9 and 10^−10). Let sit 10 minutes at room temperature. Incubate 10 minutes at 37° C. Meanwhile, label the NZCYM plates with the phage sample and the dilution. To the first tube still in the 37° C. heat block, add 3 mL top agar (from the bottle of top agar in the 50° C. bath), vortex the tube, and quickly pour onto the NZCYM plate. Swirl the plate quickly so the top agar covers the entire plate. Allow the top agar to solidify on the bench. Repeat with each tube. Incubate the plates at 37° C. overnight in an inverted position. The next day, count the plaques and calculate the titer by using the dilution which provides the most countable number of plaques.
This experiment tested the stability of citraconic anhydride (Cit)-treated lambda bacteriophage. Phage was inactivated using different Cit concentrations and stored for one month at 4° C.
Bacteriophage targets treated with different concentrations of Cit were stored in different buffers and then evaluated for their inactivation status. Targets were stored in either 10 mM Tris pH8.3 or 10 mM Tricine pH 8.3.

Structure (SMILES): CC1=CC(=O)OC1=O [citraconic anhydride]
- Day 1 - Titer: 6.7 × 10^6 pfu/ml
- Day 8 - Titer (1.1 μM final concentration, stored at 4° C.): 3.9 × 10^7 pfu/ml
- Day 1 - Titer (11 μM final concentration): 9.0 × 10^6 pfu/ml
- Day 8 - Titer (11 μM final concentration, stored at 4° C.): 2.9 × 10^7 pfu/ml
- Day 1 - Titer (0.11 mM final concentration): 5.5 × 10^6 pfu/ml
- Day 8 - Titer (0.11 mM final concentration, stored at 4° C.): 3.6 × 10^7 pfu/ml
- Day 1 - Titer (1.1 mM final concentration): 1.8 × 10^6 pfu/ml
- Day 8 - Titer (1.1 mM final concentration, stored at 4° C.): 2.0 × 10^7 pfu/ml
- Titer, Tricine, After 1 month (5.5 mM Cit): 3 × 10^3 pfu/ml
- Titer, Tricine, Day 1 (5.5 mM Cit): 1 × 10^3 pfu/ml
- Titer, Tris, After 1 month (5.5 mM Cit): 0 pfu/ml
- Titer, Tris, Day 1 (5.5 mM Cit): 1.5 × 10^3 pfu/ml
- Titer pfu/ml (Day 1) (5.5 mM final Cit concentration): 1.5 × 10^6 pfu/ml
- Titer pfu/ml (at 1 month) (5.5 mM final Cit concentration): 1.5 × 10^6 pfu/ml
- Titer, Tricine, After 1 month (11 mM Cit): 0 pfu/ml
- Titer, Tricine, Day 1 (11 mM Cit): 0 pfu/ml
- Titer, Tris, After 1 month (11 mM Cit): 0 pfu/ml
- Titer, Tris, Day 1 (11 mM Cit): 0 pfu/ml
- Titer pfu/ml (Day 1) (11 mM final Cit concentration): 0 pfu/ml
- Titer pfu/ml (at 1 month) (11 mM final Cit concentration): 0 pfu/ml
- Day 1 - Titer (11 mM final concentration in reaction with phage, 1 h room temperature, phage 1×10^7 pfu/ml in SM buffer): 0 pfu/ml
- Day 8 - Titer (11 mM final concentration, stored at 4° C.): 0 pfu/ml
- Phage inactivation (11 mM, persisted after 7 days): complete inactivation
- Titer, Tricine, After 1 month (22 mM Cit): 0 pfu/ml
- Titer, Tricine, Day 1 (22 mM Cit): 0 pfu/ml
- Titer, Tris, After 1 month (22 mM Cit): 0 pfu/ml
- Titer, Tris, Day 1 (22 mM Cit): 0 pfu/ml
- Titer pfu/ml (Day 1) (22 mM final Cit concentration): 0 pfu/ml
- Titer pfu/ml (at 1 month) (22 mM final Cit concentration): 0 pfu/ml
- Persistence of phage inactivation after storage (Cit-treatment at >=11 mM, storage in 10 mM Tris pH8.3 or 10 mM Tricine pH 8.3): provides inactivation for 1 month
- Persistence of phage inactivation (greater than or equal to 11 mM, stored at 4° C.): remain inactivated for 1 month
